The text below walks through data of patent publication US20090137493A1, “Inhibition of tumor metastases using protein kinase C (PKC) inhibitors” (priority 2007, published 2009).

The test system of experiment [1] is MCF-7 breast cancer cells. Description: Wound healing (migration) assay, MCF-7. It counts as cell-based, human. The conditions noted are these: peptide 1 uM, re-applied every 2 h for 8 h. The protocol: FIGS. 13A-13D are micrographs showing the efficacy of TAT carrier peptide (TAT; FIG. 13A), αV5-3-TAT peptide (Alpha; FIG. 13B), βIIV5-3 peptide (Beta2; FIG. 13C), and εV1-2 (epsilon; FIG. 13D) on human MCF-7 breast cancer cell migration.
(§1) To investigate the role of PKC inhibitors in reducing the migration of tumor cells, in vitro migration assays were performed using MDA-MB-231 breast cancer cells (FIGS. 12A-12D), MCF-7 breast cancer cell (FIGS. 13A-13D), JC cells (FIGS. 15A-15D), and 4T1 cells (FIGS. 16A-16D), in the presence of TAT carrier peptide (TAT), αV5-3-TAT peptide (Alpha), βIIV5-3 peptide (Beta2), or εV1-2 peptide (Epsilon).
(§2) Wound healing assay: Human or mouse breast cancer cell lines were grown in 6-well plates until about 90% confluent. Cells were then grown in serum free media overnight, before media was changed to media +1% FBS and peptide PKC inhibitors added (1 uM), at the same time a pipette tip was drawn across the cell layer to create a scrape ‘wound’. PKC inhibitors were re-applied every 2 h for a total of 8 h, before cells were left for a further 12 h and then the scrape was examined under phase contrast microscopy.

In experiment [2] the test system is MDA-MB-231 breast cancer cells. The experiment in a line: Wound healing (migration) assay, MDA-MB-231. The experiment is classed as cell-based, human. The conditions noted are these: peptide 1 uM, re-applied every 2 h for 8 h. The protocol: FIGS. 12A-12D are micrographs showing the efficacy of TAT carrier peptide (TAT; FIG. 12A), αV5-3-TAT peptide (Alpha; FIG. 12B), βIIV5-3 peptide (Beta2; FIG. 12C), and εV1-2 (Epsilon; FIG. 12D) on human MDA-MB-231 breast cancer cell migration.
as §1, §2

Experiment [3] relates to MCF-7 breast cancer cells. The experiment in a line: Cell migration/invasion assay through a HUVEC monolayer, MCF-7. It counts as cell-based, human. The conditions noted are these: peptide 10 μM, re-applied every 2 hours for 10 hours. From the text:
(§3) FIGS. 14A and 14B are bar graphs showing the efficacy of TAT carrier peptide (TAT), αV5-3-TAT peptide (Alpha), βIIV5-3 peptide (Beta-2), and εV1-2 (Epsilon) in inhibiting the invasion of human MDA-MB-231 and MCF-7 breast cancer cells through a HUVEC monolayer. FIGS. 14C and 14D are bar graphs showing the efficacy of TAT carrier peptide (TAT) or αV5-3-TAT peptide in inhibiting the invasion of 4T1 (FIG. 11C) and MDA-MB-231 (FIG. 11D) cells.
FIGS. 14A and 14B show the results of a related experiment measuring the efficacy of TAT carrier peptide (TAT), αV5-3-TAT peptide (Alpha), βIIV5-3 peptide (Beta-2), and εV1-2 peptide (Epsilon) in inhibiting the invasion of human MDA-MB-231 and MCF-7 breast cancer cells through a HUVEC monolayer. […]
Cell Migration/invasion assay: Primary human endothelial cells (HUVEC's) were plated on top of a matrigel plug in trans-well plates. Once the cells had reached confluence (as determined by examination of a control well), 1×10^6 human breast cancer cells (MCF-7 or MDA-MB-231) expressing luciferase were added above the HUVEC cell layer. […] The relative numbers of cancer cells that had crossed the HUVEC cell layer and entered the matrigel was then determined by bioluminescence detection of luciferase action following addition of luciferin substrate.

The subject of a further experiment is 4T1 tumor cells. The experiment in a line: Growth of primary tumors in vivo (number of tumor cells at primary site of injection). The arrangement: species or system mice. The conditions noted are these: animals injected with 4T1 tumor cells, FIG. 6A, versus saline. As to the method: FIG. 6A is a bar graph showing the affect of saline, the αV5-3-TAT conjugate peptide (αPKC), or the βIIV5-3-TAT conjugate peptide (βPKC) on the growth rate of primary tumors in vivo.
To determine if the effects observed with the α and βIIPKC peptide inhibitors was due to a decrease in metastasis as opposed to a decrease in primary tumor growth, animals injected with 4T1 tumor cells were treated with saline, the αV5-3-TAT conjugate peptide (αPKC), or the βIIV5-3-TAT conjugate peptide (βPKC) and the number of tumors cells at the primary site of injection were determined.

Another experiment deals with JC cells. Description: Wound healing (migration) assay, JC. The experiment is classed as cell-based, mouse. Particulars: peptide 1 uM, re-applied every 2 h for 8 h. As to the method:
FIGS. 15A-15D are micrographs showing the efficacy of TAT carrier peptide (TAT; FIG. 15A), αV5-3-TAT peptide (Alpha; FIG. 15B), βIIV5-3 peptide (Beta2; FIG. 15C), and εV1-2 (Epsilon; FIG. 15D) on JC cell migration.
as §1, §2

Experiment [4] deals with MDA-MB-231 breast cancer cells. Description: Cell migration/invasion assay through a HUVEC monolayer, MDA-MB-231. Particulars: peptide 10 μM, re-applied every 2 hours for 10 hours. It counts as cell-based, human.
From the text: as §3
FIGS. 14A and 14B show the results of a related experiment measuring the efficacy of TAT carrier peptide (TAT), αV5-3-TAT peptide (Alpha), βIIV5-3 peptide (Beta-2), and εV1-2 peptide (Epsilon) in inhibiting the invasion of human MDA-MB-231 and MCF-7 breast cancer cells through a HUVEC monolayer. FIGS. 14C and 14D show the results of a similar experiment showing the efficacy of TAT carrier peptide (TAT) or αV5-3-TAT peptide in inhibiting the invasion of 4T1 (FIG. 11C) and MDA-MB-231 (FIG. 11D) cells.
Cell Migration/invasion assay: Primary human endothelial cells (HUVEC's) were plated on top of a matrigel plug in trans-well plates. Once the cells had reached confluence (as determined by examination of a control well), 1×10^6 human breast cancer cells (MCF-7 or MDA-MB-231) expressing luciferase were added above the HUVEC cell layer. Where applicable, peptides were added to a final concentration of 10 μM and re-applied every 2 hours for 10 hours followed by further incubation. After 24-48 hours-incubation the HUVEC cell layer (and all other cells above the matrigel) were removed by scraping of the cell layer into the media and aspiration (repeated 3 times). The relative numbers of cancer cells that had crossed the HUVEC cell layer and entered the matrigel was then determined by bioluminescence detection of luciferase action following addition of luciferin substrate.

The target in the next experiment is T1, βIIPKC (Mus musculus, UniProt P68404).
T1 construct: endogenous in cells; host or cells: 4T1 murine mammary tumour cells grown as tumours in Balb/c mice
Description: Translocation of βIIPKC in tumor cells (immunoblot of cytosol and particulate fractions). The experiment is classed as in vivo. Particulars: FIG. 5B. The protocol:
FIGS. 5A-5B are bar graphs showing the percentage of translocation of αPKC (FIG. 5A) and βIIPKC (FIG. 5B) […] in tumor cells treated with αV5-3-TAT peptide.
To further characterize inhibition of metastasis using the α and βIIPKC inhibitors, the percentage of translocation of αPKC (FIG. 5A) and βIIPKC (FIG. 5B), […] was measured.
(In western blotting, separated proteins are transferred to a membrane and probed.)

Experiment [5] concerns 4T1 murine mammary cancer cells. Description: Lung metastasis of luciferase-tagged 4T1 tumors in mice, imaging (relative light units). It counts as in vivo. Particulars: 4T1-luciferase tumor-bearing mice, osmotic pump, about 35 mg/kg/day, four weeks. The protocol: To determine whether specific PKC inhibitors could reduce the amount of PKC translocation/activation in vivo and thereby reduce tumor cell metastasis, animals were administered an αPKC peptide inhibitor, or appropriate control, via an implanted osmotic pump, following the injection of luciferase-tagged tumor cells. […] The data are summarized in the bar graph shown in FIG. 4, along with similar data relating to the use of a βIIV5-3-TAT conjugate peptide (βPKC; SEQ ID NO: 27). The extent of lung metastasis is expressed as relative light units.
Balb/c female mice (6 weeks old) were injected semi-orthotopically with 4T1 murine mammary cancer cells tagged with luciferase ([…] cells/100 μL). One week later, an osmotic minipump was implanted subcutaneously in each animal, for delivery of saline (control), TAT peptide (control, YGRKKRRQRRR, SEQ ID NO: 25), the peptide inhibitor αV5-3 (QLVIAN, SEQ ID NO: 6) attached via an N-terminal disulfide bond to TAT peptide (YGRKKRRQRRR-CC-QLVIAN, SEQ ID NO: 26).
In other experiments, the peptide inhibitor βIIV5-3 (QEVIAN, SEQ ID NO: 13) or εV1-2 (EAVSLKPT, SEQ ID NO: 20) is attached via an N-terminal disulfide bond to the TAT peptide (SEQ ID NOs: 27 and 28, respectively). The TAT control, αV5-3-TAT, βIIV5-3-TAT, or εV1-2-TAT conjugate peptides are administered at about 35 mg/kg/day for two and four weeks.
After two weeks of treatment with αV5-3-TAT, some animals were selected form imaging (IVIS® 29, Xenogen Corporation, Alameda, Calif.) and analysis, with the remaining animals imaged after four weeks of treatment.
FIG. 4 is a bar graph showing the extent of lung metastasis, expressed as relative light units (based on imaging as exemplified in FIG. 3), in tumor-bearing mice treated for four weeks with saline, the αV5-3-TAT conjugate peptide (αPKC), or the βIIV5-3-TAT conjugate peptide (βPKC). The extent of lung metastasis, quantified approximately by the relative light units, for mice treated with saline, the αPKC inhibitor, and the βIIV5-3 PKC inhibitor peptide is shown. The extent of lung metastases is reduced in the animals treated with the αPKC inhibitor.

Bridges are numbered along the chain shown (N, C = ends). Where no end group is shown, it is not given here.

T1 sequence (P68404 1-673 isoform P68404-2): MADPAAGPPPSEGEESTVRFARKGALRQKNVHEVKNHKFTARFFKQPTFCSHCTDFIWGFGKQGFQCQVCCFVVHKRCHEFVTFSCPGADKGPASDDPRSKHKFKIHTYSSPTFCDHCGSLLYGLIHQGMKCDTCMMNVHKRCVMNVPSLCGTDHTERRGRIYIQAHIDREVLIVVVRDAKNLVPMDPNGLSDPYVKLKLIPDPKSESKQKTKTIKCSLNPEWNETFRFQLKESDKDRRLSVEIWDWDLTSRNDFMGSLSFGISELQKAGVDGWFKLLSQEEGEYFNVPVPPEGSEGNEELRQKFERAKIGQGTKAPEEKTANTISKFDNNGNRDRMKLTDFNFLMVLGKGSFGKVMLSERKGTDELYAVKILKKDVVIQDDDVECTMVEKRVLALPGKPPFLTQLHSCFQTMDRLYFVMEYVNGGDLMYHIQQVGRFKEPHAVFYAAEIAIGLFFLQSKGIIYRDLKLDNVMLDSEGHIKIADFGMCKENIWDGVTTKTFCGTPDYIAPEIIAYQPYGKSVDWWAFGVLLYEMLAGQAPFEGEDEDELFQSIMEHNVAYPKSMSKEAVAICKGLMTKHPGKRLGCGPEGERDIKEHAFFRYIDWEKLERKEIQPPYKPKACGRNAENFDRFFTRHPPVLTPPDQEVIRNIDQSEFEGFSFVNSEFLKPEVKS

On to “YGRKKRRQRRR-CC-CGRNAE (YGRKKRRQRRRCCCGRNAE; disulfide (positions not given here); also: TAT conjugated via disulfide, Cys pair not given here) [βIIV5-3-TAT]”, for which the “migration of MCF-7 breast cancer cells” value in experiment [1] (listed as βIIPKC inhibitor) is “reduced migration and invasion”; in experiment [1] (listed as βIIV5-3 peptide) it was “reduced”. In addition, the “migration of MDA-MB-231 breast cancer cells” value in experiment [2] (listed as βIIPKC inhibitor) is “reduced migration and invasion”; in experiment [2] (listed as βIIV5-3 peptide), “reduced”. Moreover, the “invasion of MCF-7 cells through a HUVEC monolayer” value in experiment [3] is “reduced migration and invasion”. In addition, the “reduction in the number of cells at the primary tumor site” value in the experiment on 4T1 tumor cells is listed as “no reduction”. Also, the “migration of JC cells” value in the experiment with JC cells is given as “reduced”. Further, the “invasion of MDA-MB-231 cells through a HUVEC monolayer” value in experiment [4] is “reduced migration and invasion”. For the same substance, the “reduction of βIIPKC translocation” value with βIIPKC was “did not significantly reduce”. Moreover, the “effect on lung metastasis compared to control animals (in words)” value in experiment [5] is “less pronounced effect”; in experiment [5] (listed as βPKC inhibitor) it was “about half”.
As to “YGRKKRRQRRR-CC-EAVSLKPT (YGRKKRRQRRRCCEAVSLKPT; disulfide 12-13 (inferred)) [εV1-2-TAT]”, the “invasion of MCF-7 cells through a HUVEC monolayer” value in experiment [3] was “reduce invasion”. Further, the “invasion of MDA-MB-231 cells through a HUVEC monolayer” value in experiment [4] is on record as “reduce invasion”.
